In EP1596818B1, “COSMETIC COMPOSITION WITH A WHITENING EFFECT, METHOD FOR THE PRODUCTION AND USE THEREOF” (Riemschneider, Randolph, Dr. Dr. Prof., priority 2003, dated 2004):
Read-outs that look alike come from different tables or passages of the source.

Tests used:
[1] = Preclinical test of local tolerability
Text: Zusammenfassung: der Wirkstoff Methyl-ADAPD ist im Patch-Test auf allergisierendes Potenzial geprüft worden. In einer präklinischen Prüfung wurde die lokale Verträglichkeit abgeklärt.

[2] = B16 melanoma cell test for whitening effect (inhibition of melanin production); assay type: cell-based, Mäusen; details: mouse, b16 melanoma cells, cell number relative to control (1,00), read-out: Relativwert
Method: (§1) Nach Zerstörung der Emulsion der Handcreme durch Wasserzusatz und Erhitzen auf 80 °C wurde die wässrige Phase abgetrennt, im Vakuum eingeengt und der Zentrifugenrückstand wurde gefriergetrocknet.
(§2) Definierte Mengen des dabei erhaltenen Lyophilisats wurden in entionisiertem Wasser gelöst und nach den Angaben in dem weiter unten beschriebenen Testverfahren behandelt. Tabelle 1
(§3) Die grobe Beurteilung der Whitening-Effekte wurde vorgenommen nach der Abtrennung der Zellen unter Verwendung von 6 ml EDTA-Lösung und Auszählen der Zellen, z.B. Tabelle 1 und Tabelle 3 (Beurteilungskriterien auf S. 15).
(§4) • 1. Herstellung und Sterilisierung eines Test-Kulturmediums • 2. Herstellung einer Zellenflotationslösung • 3. Einstellung des pH-Wertes des Kulturmediums • 4. Ausstreichen des Kulturmediums auf einer Petrischale • 5. Einimpfen von B16-Melanom-Zellen von Mäusen • 6. […] Auswechseln des Kulturmediums am 3. Tag • 8.

[3] = tested on: B16-Melanom-Zellen von Mäusen; experiment: as above; assay type: cell-based; details: for Anzahl der Zellen: lyophilisate from aqueous phase of the hand cream, 6 days culture
Method: as §1, §2, §3, §4

Tyrosinase = Tyrosinase inhibitor rate; assay type: biochemical
[4] = Wirkstoff-Gehalt 1,25 mg/ml Lösung
[5] = Wirkstoff-Gehalt 2,5 mg/ml Lösung

## CC(=O)C1C(=O)C=C(C)OC1=O (stereo not drawn) [Methyl-ADAPD]
[1]
  lokale Verträglichkeit: keine Bedenken
[2]; [4]
  viability at 144 h: 92%
[2]; [5]
  viability at 144 h: 86%
[3]; [4]
  Whitening-Effekt: +
  Anzahl der Zellen: 82x10^4
[3]; [5]
  Whitening-Effekt: +++
  Anzahl der Zellen: 79x10^4
Tyrosinase; Wirkstoff-Gehalt 0,5 mg/ml Lösung
  Tyrosinase-Inhibitorrate: 84%
Tyrosinase; Wirkstoff-Gehalt 5 mg/ml Lösung
  Tyrosinase-Inhibitorrate: 99,1%
